Assay results reported in ChEMBL document CHEMBL1201862, “PubChem BioAssay data set” (2004).
Active and inactive are the calls of the source.

Columns and labels:
[1] = target: Disintegrin and metalloproteinase domain-containing protein 17 (Homo sapiens, UniProt P78536); experiment: ADAM17 protease inhibitors, dose response, counter-screen for ADAM10 exosite inhibitor project, biochemical, quenched FRET substrate (AID 743253)
[2] = ADAM10 inhibitors, peptide cleavage, dose response, biochemical, QFRET (AID 743254);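 note: ADAM10 enzyme with the DM2 quenched FRET peptide as substrate; EDANS fluorescence gain as the protease cuts the substrate; inhibitor potency against ADAM10 proteolytic activity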
BJ [3] = experiment: cytotoxicity toward BJ-TERT fibroblasts, dose response, cell-based, RAS-independent, luminescence (AID 1933); format: functional; conditions: Homo sapiens
[4] = cytotoxicity toward DRD oncogenic fibroblasts, dose response, cell-based, non-viral oncogenic, luminescence (AID 1934); format: functional; conditions: Homo sapiens
HEK293 = experiment: inhibitors of LMP1-driven NF-kB reporter, dose response, cell-based, HEK293, luciferase, cherry-pick (AID 588343); format: functional; conditions: Homo sapiens
[5] = MC4R antagonists, dose response, counter-screen for LGR2 antagonist project, cell-based, plate reader, cherry pick (AID 743444); format: functional;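 note: transfected HEK 293 cells stimulated with alpha-MSH peptide; potency of inhibitors of the alpha-MSH evoked signal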
[6] = Luminescence Cell-Based Dose Response HTS to Identify Inhibitors of 5'UTR Stem-Loop Driven Prion Protein mRNA Translation in H4 Neuroglioblastoma Cells. [Related pubchem assays: 1827 (Project Summary), 1813 (Primary HTS)]; format: functional
[7] = target: T1, Nuclear receptor subfamily 0 group B member 1 (Homo sapiens, UniProt P51843); format: functional, cell-based;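 note: HEK293T cells transfected with SF-1 and DAX-1 plus StAR promoter luciferase reporter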
T1 sequence (P51843 whole entry): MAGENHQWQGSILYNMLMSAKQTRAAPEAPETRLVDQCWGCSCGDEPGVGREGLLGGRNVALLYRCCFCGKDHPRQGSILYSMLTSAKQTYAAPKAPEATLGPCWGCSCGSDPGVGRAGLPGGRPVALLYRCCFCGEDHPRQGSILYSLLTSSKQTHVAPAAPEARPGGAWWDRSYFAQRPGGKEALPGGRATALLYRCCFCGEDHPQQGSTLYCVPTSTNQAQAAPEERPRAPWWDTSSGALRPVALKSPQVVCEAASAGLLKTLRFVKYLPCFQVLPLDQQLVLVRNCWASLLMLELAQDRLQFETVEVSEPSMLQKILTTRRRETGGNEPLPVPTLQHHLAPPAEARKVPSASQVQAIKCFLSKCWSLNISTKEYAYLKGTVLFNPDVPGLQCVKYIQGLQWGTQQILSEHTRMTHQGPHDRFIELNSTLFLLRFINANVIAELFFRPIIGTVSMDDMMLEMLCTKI

cells = format: functional, cell-based
[8] = LGR2 antagonists, dose response, cell-based, HEK293, CRE-luciferase reporter, cherry pick, set 2 (AID 743343); format: functional;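 note: transfected cells were stimulated with diluted bursicon conditioned medium after compound addition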
BJ [9] = experiment: cells; format: functional, cell-based; conditions: Homo sapiens
[10] = A549 cell cytotoxicity, dose response, cytotoxicity control, plate reader, cherry-pick, antagonist series (AID 743412); format: functional, cell-based
BJ [11] = experiment: cytotoxicity toward BJ-TERT-LT-ST fibroblasts, dose response, cell-based, RAS-independent, luminescence (AID 1935); format: functional; conditions: Homo sapiens;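 note: BJ fibroblasts immortalized with TERT plus LT and ST oncogenes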
[12] = HEK293 cell cytotoxicity, dose response, cytotoxicity control, plate reader, cherry-picked samples (AID 743446); format: functional, cell-based
[13] = inhibitors of SNCA 5'UTR-driven reporter translation, confirmation, H4 neuroglioma cells, luminescence (AID 1988); format: functional, cell-based
[14] = HepG2 cell cytotoxicity, dose response, cytotoxicity control, plate reader, cherry-pick, antagonist series (AID 743416); format: functional, cell-based
[15] = target: 5-hydroxytryptamine receptor 2A (Mus musculus, UniProt P35363); format: functional, cell-based;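 note: CHO-K1 cells with tagged receptor and beta-arrestin; agonist potency measured as compound-induced activation of the receptor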
Mu-type opioid receptor = Mu-type opioid receptor (Homo sapiens, UniProt P35372); format: functional, cell-based;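 note: U2OS cells with beta-arrestin recruitment to OPRM1 by beta-gal complementation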
[16] = target: T2, Carboxy-terminal domain RNA polymerase II polypeptide A small phosphatase 1 (Homo sapiens, UniProt Q9GZU7); experiment: inhibitors of CTDSP1, concentration-response testing, biochemical assay, absorbance-based, actives from ultra-high-throughput screening (AID 540297); format: functional
T2 sequence (Q9GZU7 whole entry): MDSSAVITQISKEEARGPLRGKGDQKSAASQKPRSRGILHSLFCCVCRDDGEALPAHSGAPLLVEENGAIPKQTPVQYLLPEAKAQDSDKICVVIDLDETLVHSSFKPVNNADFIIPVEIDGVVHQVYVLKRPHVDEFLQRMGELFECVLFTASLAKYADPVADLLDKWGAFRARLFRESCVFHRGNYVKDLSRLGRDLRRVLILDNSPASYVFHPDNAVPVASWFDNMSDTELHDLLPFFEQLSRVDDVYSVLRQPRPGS

[17] = target: T3, Tyrosine-protein phosphatase non-receptor type 11 (Homo sapiens, UniProt Q06124); experiment: SHP2 phosphatase inhibition, dose response, selectivity assay for STEP inhibitor project, biochemical (AID 602367); format: functional; conditions: read-out: IC50_Mean
T3 sequence (Q06124 whole entry): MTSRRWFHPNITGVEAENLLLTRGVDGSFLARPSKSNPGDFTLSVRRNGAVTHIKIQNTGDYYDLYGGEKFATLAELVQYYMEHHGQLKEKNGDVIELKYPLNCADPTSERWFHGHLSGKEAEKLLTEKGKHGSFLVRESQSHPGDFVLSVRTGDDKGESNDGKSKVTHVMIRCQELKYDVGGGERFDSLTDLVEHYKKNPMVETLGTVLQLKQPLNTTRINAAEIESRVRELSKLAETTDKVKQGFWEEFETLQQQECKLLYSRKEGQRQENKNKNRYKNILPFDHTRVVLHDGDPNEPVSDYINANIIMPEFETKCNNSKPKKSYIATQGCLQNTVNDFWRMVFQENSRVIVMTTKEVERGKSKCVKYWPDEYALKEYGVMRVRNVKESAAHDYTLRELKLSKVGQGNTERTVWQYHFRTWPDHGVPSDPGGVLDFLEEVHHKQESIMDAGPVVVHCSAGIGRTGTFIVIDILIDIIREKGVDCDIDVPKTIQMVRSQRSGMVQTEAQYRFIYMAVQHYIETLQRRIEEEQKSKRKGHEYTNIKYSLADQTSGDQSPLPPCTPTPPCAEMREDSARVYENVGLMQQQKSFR

[18] = target: T4, Tyrosine-protein phosphatase non-receptor type 5 (Homo sapiens, UniProt P54829); experiment: STEP phosphatase inhibitors, confirmation, biochemical, fluorescence intensity, uHTS hits (AID 602372); format: functional; conditions: read-out: IC50_Mean
T4 sequence (P54829 whole entry): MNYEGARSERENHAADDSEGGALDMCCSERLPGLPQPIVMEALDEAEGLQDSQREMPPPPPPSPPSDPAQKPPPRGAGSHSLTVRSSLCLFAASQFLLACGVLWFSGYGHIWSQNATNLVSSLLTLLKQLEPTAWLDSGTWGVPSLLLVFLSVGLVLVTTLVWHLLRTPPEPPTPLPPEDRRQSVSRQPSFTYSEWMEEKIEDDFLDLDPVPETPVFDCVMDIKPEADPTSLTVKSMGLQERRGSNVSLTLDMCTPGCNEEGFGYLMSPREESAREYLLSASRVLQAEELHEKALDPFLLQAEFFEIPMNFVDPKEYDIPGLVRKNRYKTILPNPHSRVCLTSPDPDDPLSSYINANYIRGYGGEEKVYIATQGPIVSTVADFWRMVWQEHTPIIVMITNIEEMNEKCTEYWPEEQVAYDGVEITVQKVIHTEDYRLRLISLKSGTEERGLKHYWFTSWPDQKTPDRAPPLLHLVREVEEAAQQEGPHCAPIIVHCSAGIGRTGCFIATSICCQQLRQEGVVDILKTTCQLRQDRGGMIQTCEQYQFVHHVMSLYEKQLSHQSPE

[19] = target: Dual specificity protein phosphatase 3 (Homo sapiens, UniProt P51452); experiment: VHR phosphatase inhibition, dose response, selectivity assay for STEP inhibitor project, biochemical (AID 602374); format: functional; conditions: read-out: IC50_Mean
[20] = target: T5, Low molecular weight phosphotyrosine protein phosphatase (Homo sapiens, UniProt P24666); format: functional; conditions: read-out: IC50_Mean
T5 sequence (P24666 whole entry): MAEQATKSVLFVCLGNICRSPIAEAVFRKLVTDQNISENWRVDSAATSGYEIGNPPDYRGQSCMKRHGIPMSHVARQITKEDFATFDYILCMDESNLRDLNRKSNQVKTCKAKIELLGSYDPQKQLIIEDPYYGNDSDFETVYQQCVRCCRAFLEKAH

[21] = target: T5, Low molecular weight phosphotyrosine protein phosphatase; format: functional; conditions: read-out: IC50_Mean; remark: listed apart in the source
[22] = Luminescence Cell-Based Dose Retest to Confirm Inhibitors of Cancer Stem Cells. [Related pubchem assays (depositor defined):AID2717, AID2721]; format: functional; conditions: Homo sapiens

Mu-type opioid receptor, sequence (P35372 whole entry, the tested form may be a part): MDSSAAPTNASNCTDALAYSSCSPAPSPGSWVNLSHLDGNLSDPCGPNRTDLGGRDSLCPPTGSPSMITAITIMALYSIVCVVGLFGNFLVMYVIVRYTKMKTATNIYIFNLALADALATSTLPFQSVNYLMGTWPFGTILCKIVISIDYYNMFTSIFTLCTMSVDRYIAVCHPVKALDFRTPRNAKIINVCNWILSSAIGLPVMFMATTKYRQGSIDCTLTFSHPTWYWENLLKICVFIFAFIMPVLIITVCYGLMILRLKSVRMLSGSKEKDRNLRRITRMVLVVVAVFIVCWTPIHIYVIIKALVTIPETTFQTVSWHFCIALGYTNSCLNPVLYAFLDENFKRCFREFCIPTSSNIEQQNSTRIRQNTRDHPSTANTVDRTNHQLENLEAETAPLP
5-hydroxytryptamine receptor 2A, sequence (P35363 whole entry): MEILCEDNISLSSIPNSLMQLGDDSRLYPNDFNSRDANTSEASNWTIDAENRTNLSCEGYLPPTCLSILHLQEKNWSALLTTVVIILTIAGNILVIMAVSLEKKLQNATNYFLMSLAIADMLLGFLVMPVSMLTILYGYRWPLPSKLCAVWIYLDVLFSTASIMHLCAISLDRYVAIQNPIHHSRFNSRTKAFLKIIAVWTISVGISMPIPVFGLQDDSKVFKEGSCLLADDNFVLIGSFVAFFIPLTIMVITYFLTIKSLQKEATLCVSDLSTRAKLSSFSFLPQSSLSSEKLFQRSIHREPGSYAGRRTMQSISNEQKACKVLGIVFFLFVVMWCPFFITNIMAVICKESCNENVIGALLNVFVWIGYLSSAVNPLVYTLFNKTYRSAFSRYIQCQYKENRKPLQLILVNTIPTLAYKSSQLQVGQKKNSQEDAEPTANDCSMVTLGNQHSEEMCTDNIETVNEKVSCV
Disintegrin and metalloproteinase domain-containing protein 17, sequence (P78536 whole entry, the tested form may be a part): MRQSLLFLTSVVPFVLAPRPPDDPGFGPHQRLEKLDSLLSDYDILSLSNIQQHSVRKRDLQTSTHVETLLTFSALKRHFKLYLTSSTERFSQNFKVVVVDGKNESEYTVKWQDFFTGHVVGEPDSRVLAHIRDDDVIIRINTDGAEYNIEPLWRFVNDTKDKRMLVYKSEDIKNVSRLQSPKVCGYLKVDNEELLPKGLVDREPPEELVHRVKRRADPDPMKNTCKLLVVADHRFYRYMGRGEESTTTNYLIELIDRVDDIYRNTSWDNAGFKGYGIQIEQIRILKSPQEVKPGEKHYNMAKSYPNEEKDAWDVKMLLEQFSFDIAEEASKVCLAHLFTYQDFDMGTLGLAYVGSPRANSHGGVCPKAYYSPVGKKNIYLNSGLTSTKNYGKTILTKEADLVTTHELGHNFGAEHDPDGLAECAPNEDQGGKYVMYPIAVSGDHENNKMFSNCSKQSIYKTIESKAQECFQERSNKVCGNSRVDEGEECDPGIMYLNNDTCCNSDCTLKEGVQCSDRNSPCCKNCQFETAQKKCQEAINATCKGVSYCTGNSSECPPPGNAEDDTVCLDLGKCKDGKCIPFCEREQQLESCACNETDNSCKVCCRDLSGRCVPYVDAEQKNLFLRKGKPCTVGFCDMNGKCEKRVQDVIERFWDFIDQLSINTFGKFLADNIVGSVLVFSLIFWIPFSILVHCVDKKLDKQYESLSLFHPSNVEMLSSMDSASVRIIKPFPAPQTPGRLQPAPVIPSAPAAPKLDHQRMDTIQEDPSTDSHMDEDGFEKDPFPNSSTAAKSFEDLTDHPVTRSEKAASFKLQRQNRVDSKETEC
Dual specificity protein phosphatase 3, sequence (P51452 whole entry): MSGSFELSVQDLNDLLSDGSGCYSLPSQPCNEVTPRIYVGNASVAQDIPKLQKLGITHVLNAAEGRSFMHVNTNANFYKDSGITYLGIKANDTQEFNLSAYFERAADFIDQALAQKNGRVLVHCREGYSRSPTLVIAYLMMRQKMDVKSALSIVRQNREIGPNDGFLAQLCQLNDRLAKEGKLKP

NS(=O)(=O)c1ccc(NCc2cc(Cl)ccc2OCc2ccccc2F)cc1
IC50 [1]: > 69.5 µM (inactive) | IC50 [2]: 10.9 µM (inactive)

COc1ccc(-c2ccc(NC(=O)c3ccco3)cc2)nn1
EC50 (BJ [3]): 5.74 µM (active) | EC50 [4]: 7.33 µM (active) | AC50 (HEK293): 1.51 µM (active) | AC50 [5]: 3.59 µM (active) | EC50 [6]: 4.34 µM (active) | IC50 [7]: > 67.6 µM (inactive) | IC50 (cells): > 67.6 µM (inactive) | AC50 [8]: 3.8 µM (active) | EC50 (BJ [9]): 10.1 µM (active) | AC50 [10]: 11.1 µM (active) | EC50 (BJ [11]): 21.8 µM (active) | AC50 [12]: 21.9 µM (active) | EC50 [13]: 5.37 µM (active) | AC50 [14]: 15.2 µM (active)

O=C(c1ccco1)N1CCN(Cc2ccc(F)cc2)CC1
EC50 [15]: 7.5 µM (active) | EC50 (Mu-type opioid receptor): 92.5 µM (inactive)

CCc1ccc(CN2CCN(C(=O)c3ccco3)CC2)cc1
EC50 [15]: 0.219 µM (active) | EC50 (Mu-type opioid receptor): 92.5 µM (inactive)

CCCCC(=O)Nc1ccc(C(=O)NNC(=O)c2ccc(C)c(Br)c2)cc1
IC50 [16]: 10.2 µM (active) | IC50 [17]: 3.17 µM (active) | IC50 [18]: 28 µM (inactive) | IC50 [19]: 4.58 µM (active) | IC50 [20]: 17.2 µM (active) | IC50 [21]: 16.6 µM (active)

Cc1ccc(S(=O)(=O)Nc2ccc(-c3nnc(SCc4ccccc4Cl)o3)cc2)cc1
AC50 [22]: 3.88 µM (active) | IC50 [1]: > 69.5 µM (inactive) | IC50 [2]: > 69.5 µM (inactive)
